In paper PMC9920298, “Coronavirus Inhibitors Targeting nsp16” (Molecules, 2023):

What was measured:
GST-NSP16 SARS-CoV-2 = GST-NSP16 SARS-CoV-2 (Severe acute respiratory syndrome coronavirus 2, UniProt P0DTD1); assay: biochemical; assay type: binding
GST-NSP16 SARS-CoV-1 = GST-NSP16 SARS-CoV-1 (Severe acute respiratory syndrome coronavirus, UniProt P0C6X7); assay: biochemical; assay type: binding
GST-NSP16 MERS-CoV = GST-NSP16 MERS-CoV (Middle East respiratory syndrome-related coronavirus, UniProt K9N7C7); assay: biochemical; assay type: binding
[1] = Cell viability (resazurin) assay in normal lung fibroblasts; conditions: human, MRC-5 lung fibroblasts

GST-NSP16 MERS-CoV, sequence (K9N7C7 6776-7078 limits assumed): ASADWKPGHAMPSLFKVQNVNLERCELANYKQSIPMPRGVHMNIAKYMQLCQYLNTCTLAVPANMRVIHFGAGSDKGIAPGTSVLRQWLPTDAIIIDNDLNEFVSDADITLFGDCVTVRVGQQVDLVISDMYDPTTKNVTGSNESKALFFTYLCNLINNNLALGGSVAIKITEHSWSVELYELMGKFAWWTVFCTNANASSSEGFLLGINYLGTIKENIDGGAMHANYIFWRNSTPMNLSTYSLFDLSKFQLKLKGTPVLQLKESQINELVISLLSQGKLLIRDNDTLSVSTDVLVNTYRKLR

Cc1ccc2ccccc2c1COc1ccc2c(-c3cc4ccccc4oc3=O)cc(=O)oc2c1 [ZINC2121012, 7′-[(2-methylnaphthalen-1-yl)methoxy]-2H,2′H-3,4′-bichromene-2,2′-dione]
Binding to SARS-CoV-2 nsp16 by MST (in words) (GST-NSP16 SARS-CoV-2): strong binding
Kd (GST-NSP16 SARS-CoV-2): 23.1 ± 1.05 µM
Binding to SARS-CoV-1 nsp16 by MST (in words) (GST-NSP16 SARS-CoV-1): bound to neither SARS-CoV-1 nor MERS-CoV
Binding to MERS-CoV nsp16 by MST (in words) (GST-NSP16 MERS-CoV): bound to neither SARS-CoV-1 nor MERS-CoV

O=c1cc(-c2cc3ccccc3oc2=O)c2ccc(OCc3cccc4ccccc34)cc2o1 [ZINC2129028, 7′-(naphthalen-1-ylmethoxy)-2H,2′H-3,4′-bichromene-2,2′-dione]
CC50 at 72 h [1]: 18.5 ± 0.66 µM
Binding to SARS-CoV-2 nsp16 by MST (in words) (GST-NSP16 SARS-CoV-2): strong binding
Kd (GST-NSP16 SARS-CoV-2): 60 ± 2.53 µM
Kd (GST-NSP16 SARS-CoV-1): 56.4 ± 1.85 µM
Kd (GST-NSP16 MERS-CoV): 48.1 ± 4.12 µM

COc1cccc2c(-c3cc4ccc(OCc5ccc6ccccc6c5)cc4oc3=O)cc(=O)oc12 [ZINC12880820, 8′-methoxy-7-[(naphthalen-2-yl)methoxy]-2H,2′H-[3,4′-bichromene]-2,2′-dione]
Binding to SARS-CoV-2 nsp16 by MST (in words) (GST-NSP16 SARS-CoV-2): strong binding
Kd (GST-NSP16 SARS-CoV-2): 29.1 ± 2.86 µM
Kd (GST-NSP16 SARS-CoV-1): > 100 µM
Kd (GST-NSP16 MERS-CoV): 36.4 ± 1.12 µM
